Measurements published in a melting point compilation (Tetko et al.).

Row | Compound | melting point [°C]
1 | COc1nc(Cl)ncc1Br | 76 to 78
2 | CC(=O)NC(Cc1c[nH]c2ccc(Br)cc12)C(=O)O (centres undefined) | 206 to 208
3 | COc1ccc(N)cc1OCC(=O)NC1CC1 | 87 to 89
4 | COc1ccc(Br)cc1NCc1ccncc1 | 89 to 91
5 | CCC(=O)C(N)=O | 94 to 96
6 | CC1=C(C#N)CCC(=O)N1 | 201 to 203
7 | C=CC(=O)NC(=O)Nc1ccccc1 | 149 to 151
8 | NNC(=O)c1ccc(F)cc1Br | 151 to 153
9 | Brc1ccc2[nH]c3c(c2c1)CNCC3 | 216 to 218
10 | OCCN1CCSCC1 | 34 to 36
11 | O=C1CCCc2nc(-c3ccccc3Br)sc21 | 130 to 132
12 | O=C(O)c1cccc(NC(=O)c2ccc(Br)cc2)c1 | 306 to 308
13 | COc1cc(C=C2CC(C(C)(C)C)Cc3c2nc2ccccc2c3C(=O)O)cc(OC)c1OC (centres undefined) | 220 to 222
14 | O=C(O)C1CC1c1cccc(Cl)c1 (centres undefined) | 89 to 91
15 | O=C(O)c1c(C(F)(F)F)n[nH]c1C(F)(F)F | 255 to 257
16 | COC(=O)Nc1snc(C)c1C(=O)O | 215 to 217
17 | CC1CN(S(=O)(=O)c2ccc(N)cc2)CC(C)O1 (centres undefined) | 199 to 203
18 | Brc1nnc(Cc2ccccc2)s1 | 79 to 81
19 | COC(=O)c1ccc(-n2cc(C)cn2)c(N)c1 | 136 to 138
20 | O=C1CC2(CCCCC2)Oc2cc(O)ccc21 | 169 to 171
21 | Cn1cccc(N)c1=O | 112 to 114
22 | CC(C)Oc1ccc(N)cc1C#N | 39 to 41
23 | Cn1ccnc1C(O)C1CCNCC1 (centres undefined) | 207 to 209
24 | FC(F)(F)CNc1ccncc1 | 157 to 159

Row | Compound | melting point [°C]
25 | N#CCC(=O)N1CCS(=O)(=O)CC1 | 157 to 159
26 | CNS(=O)(=O)c1ccc(C(C)=O)cc1 | 109 to 111
27 | Cc1cc(C(F)(F)F)nc(O)n1 | 185 to 187
28 | Cc1sc2nc(CCCC(=O)O)[nH]c(=O)c2c1C | 243 to 245
29 | Cc1c(Br)ccc(S(N)(=O)=O)c1C | 195 to 197
30 | COc1ccc(OC)c(C(C)NC(=O)CCl)c1 (centres undefined) | 103 to 105
31 | C=CC(=O)Nc1ccc(N(C)C(C)C)c(F)c1 | 81 to 83
32 | O=C(Nc1ccccc1C(=O)O)c1ccc(Oc2ccccc2)cc1 | 189 to 191
33 | O=Cc1c(Cl)c2ccccc2oc1=O | 113 to 115
34 | COc1ccc(Br)cc1CN1C(=O)CNC1=O | 183 to 185
35 | Cn1ccc(C(=O)NC2(C(=O)O)CCCCCC2)cc1=O | 242 to 244
36 | CC(C)CCC(C)NC(=O)C1CSCN1 (centres undefined) | 77 to 79
37 | CC(C)(C)OC(=O)N1CCCNC(=O)C1 | 112 to 114
38 | O=C(CN1CCNCC1)Nc1ccccc1Cl | 99 to 101
39 | CCN(CC)S(=O)(=O)c1ccc(CC#N)nc1 | 72 to 74
40 | CC(C)NC(N)=O | 154 to 156
41 | Nc1cc(-c2ccco2)nn1-c1ccc(F)cc1F | 120 to 122
42 | CC(C(=O)O)S(C)(=O)=O (centres undefined) | 86 to 88
43 | O=S(=O)(c1ccccc1O)C(F)(F)F | 47 to 49
44 | O=C(O)c1nnn(-c2cccc(C(F)(F)F)c2)c1C1CC1 | 169 to 171
45 | O=C(NCCO)c1ccc([N+](=O)[O-])cc1Cl | 173 to 175
46 | NC(=O)Nc1cccc(C(=O)O)c1 | 269 to 271
47 | O=C(O)c1cc(S(=O)(=O)Cl)c(F)c(Cl)c1F | 191 to 193
48 | Cc1nn(-c2ccccc2)c(Oc2ccc(F)cc2)c1C=O | 105 to 107

Row | Compound | melting point [°C]
49 | Cn1ncc2c(N)ncnc21 | 264 to 266
50 | Cc1cc(C)n(CC(=O)O)n1 | 187 to 189
51 | O=S(=O)(Cl)c1ccc(Cl)c2c(Cl)cccc12 | 115 to 117
52 | NC(=O)c1ccc2c(N)ncnc2c1 | 359 to 361
53 | CCOC(=O)CN1CCN(S(=O)(=O)c2ccccc2)CC1 | 75 to 77
54 | Fc1ccc(-c2nnc(Cl)c3ccccc23)cc1F | 164 to 166
55 | O=C(CCl)N1CCN(S(=O)(=O)c2ccc3c(c2)CCC3)CC1 | 120 to 122
56 | CC(=O)Cn1cnc(C)c1C | 80 to 82
57 | O=C(Nc1cc(F)ccc1C(=O)O)c1ccoc1 | 253 to 255
58 | CC(C)N1C2CCCC1CC(O)C2 (centres undefined) | 59 to 61
59 | O=C(O)C1CCOc2ccccc21 (centres undefined) | 87 to 89
60 | Cc1c(N)cccc1S(N)(=O)=O | 212 to 214
61 | O=C(O)CCCOc1cccnc1 | 125 to 127
62 | COc1ccc(N)cc1NC(=O)c1cccc(F)c1 | 100 to 102
63 | O=C(O)CCOc1cccc([N+](=O)[O-])c1 | 111 to 113
64 | CC1(C)CCc2c(sc(N)c2C(N)=O)C1 | 144 to 146
65 | Cc1cc(CC(=O)NN)[nH]n1 | 151 to 153
66 | CCNC(=O)c1ccc(N)cc1 | 73 to 75
67 | O=C=Nc1ccc2c(c1)OCO2 | 48 to 51
68 | Cc1sc2ncnc(NCC(=O)O)c2c1C | 244 to 246
69 | Cc1cc(CCC(=O)O)ccc1Br | 89 to 91
70 | COC(=O)CCNc1nc2ccccc2o1 | 108 to 110
71 | O=Cc1cn(-c2ccccc2)nc1-c1ccc(Cl)cc1 | 125 to 127
72 | O=C(O)CCOc1ccc(F)cc1F | 76 to 78

Row | Compound | melting point [°C]
73 | COc1ccc(C=O)cc1OCC1CC1 | 68 to 70
74 | CC(C)(C)c1ccc(-c2cc(N)on2)cc1 | 148 to 150
75 | c1ccc2[nH]c(C3CC3)nc2c1 | 232 to 234
76 | CNC(=O)c1cc(Cl)ccc1[N+](=O)[O-] | 137 to 139
77 | Nc1nc2cnc(Cl)nc2s1 | 209 to 211
78 | O=[N+]([O-])c1cccc(OCC2CO2)c1 (centres undefined) | 63 to 65
79 | CS(=O)(=O)c1ccc2c(c1)NC(=O)CO2 | 229 to 231
80 | NCC(O)(c1ccccc1)C(F)(F)F (centres undefined) | 76 to 78
81 | NS(=O)(=O)c1cnc2c(c1)CCC2 | 188 to 190
82 | N#Cc1ccc(Cl)cc1NC1CCOCC1 | 143 to 145
83 | COC(=O)c1cc(OC)ccc1S(=O)(=O)Cl | 49 to 51
84 | O=C1C=CC(=O)N1c1ccc2ccccc2c1 | 120 to 124
85 | COc1ccc(Cc2cnc(NC(=O)CCl)s2)cc1 | 152 to 154
86 | COc1cc(C)c(CSCC(=O)O)cc1OC | 63 to 65
87 | CCN(CC)c1ccc(-c2nnc(S)n2-c2ccccc2C)cc1 | 232 to 234
88 | COC(=O)c1cc(Br)c(N)s1 | 88 to 90
89 | O=C(O)c1cccc(S(=O)(=O)N2CCc3ccccc3C2)c1 | 55 to 58
90 | SC1=Nc2ccccc2CS1 | 149 to 151
91 | Cc1c(C(=O)O)nnn1-c1cccc(Br)c1 | 184 to 186
92 | COC(=O)C(Cc1c[nH]cn1)NC(=O)CCc1ccccc1 (centres undefined) | 152 to 154
93 | O=C(O)C1CCN(c2cccc(Cl)c2)C1=O (centres undefined) | 113 to 115
94 | O=C(O)c1ccc(-c2nnc(-c3ccccc3)o2)cc1 | 299 to 301
95 | Cc1cc(C)cc(-n2[nH]c(-c3ccco3)cc2=N)c1 | 125 to 127
96 | Cc1noc(COCC(=O)O)n1 | 76 to 78

Row | Compound | melting point [°C]
97 | Cc1cn(CC(=O)O)c2ccccc12 | 175 to 177
98 | CS(=O)(=O)c1ccc(Cl)c(S(=O)(=O)Cl)c1 | 141 to 143
99 | O=C(CBr)c1ccc(S(=O)(=O)N2CCCCCC2)cc1 | 70 to 72
100 | CC(C)c1nc(N)n(C)n1 | 108 to 110
101 | Clc1cc2nnc(-c3ccccc3)n2cn1 | 155 to 157
102 | Cc1ccc(C(=O)CCC(=O)O)cc1C | 127 to 129
103 | NS(=O)(=O)CCSc1ccccc1 | 106 to 108
104 | CC(C)(C)c1ccc(C(C)(C)N)cc1 | 75 to 77
105 | Cc1cc(C)c(C(=O)O)cc1N | 203 to 205
106 | Cc1cccc(F)c1C#N | 45 to 47
107 | NC(CC(=O)O)c1ccc(C(F)(F)F)cc1 (centres undefined) | 219 to 221
108 | COc1ccc(C(C)=O)cc1CC#N | 111 to 113
109 | CCCC(C(=O)O)N(C)C (centres undefined) | 179 to 181
110 | N#Cc1cc(C2CC2)ccn1 | 60 to 62
111 | Nc1cccc(C(=O)NCc2ccccc2F)c1 | 204 to 206
112 | CCC(O)CNc1ccccc1 (centres undefined) | 48 to 50
113 | NC1CCN(c2ccc(C(F)(F)F)cc2)C1=O (centres undefined) | 132 to 134
114 | O=C(O)C(c1ccccc1)n1cccn1 (centres undefined) | 141 to 143
115 | CC(C)Oc1ccc(NS(=O)(=O)CC(=O)O)cc1 | 116 to 118
116 | NC(=O)CCSc1ccccc1F | 84 to 86
117 | O=C(CCl)N1CCN(S(=O)(=O)c2ccccc2Cl)CC1 | 215 to 217
118 | COC(=O)NC(C)(C)C(=O)O | 154 to 156
119 | COc1cc(C#N)ccc1OCCCl | 95 to 97
120 | CCC(c1ccccc1)c1nnc(N)o1 (centres undefined) | 197 to 199

Row | Compound | melting point [°C]
121 | Cc1c(Cl)ccc2ccc(=O)[nH]c12 | 269 to 271
122 | COc1ccc(Cl)c(N=C=O)c1 | 38 to 40
123 | ClCc1coc(-c2ccccc2)n1 | 51 to 55
124 | CC(C)Oc1ccc(CCC(=O)O)cc1 | 74 to 76
125 | Cc1c(NC(=O)CCCl)c(=O)n(-c2ccccc2)n1C | 207 to 209
126 | N#Cc1cc(-c2ccccc2)sc1N | 190 to 192
127 | O=C(O)c1cc(COc2ccc(Cl)cc2Cl)on1 | 151 to 153
128 | Cc1oc(C)c(C(=O)O)c1Br | 189 to 191
129 | Clc1ccc2cccnc2c1CBr | 119 to 121
130 | O=C(O)C#Cc1ccc2c(c1)OCO2 | 165 to 167
131 | O=C(O)C1CC(c2cc(F)ccc2F)=NO1 (centres undefined) | 135 to 137
132 | CC(C)c1ccc(S(=O)(=O)N2CC(O)CC2C(=O)O)cc1 (centres undefined) | 153 to 155
133 | CC(C)c1nnc(CCC(=O)O)o1 | 84 to 86
134 | O=C(O)CCn1cccn1 | 76 to 78
135 | Cc1cc(C(=O)O)nn1C(F)F | 175 to 177
136 | CNc1nc(N)n[nH]1 | 158 to 160
137 | NCC(=O)Nc1ccccc1[N+](=O)[O-] | 81 to 83
138 | Cc1cccc2c(CC#N)c[nH]c12 | 109 to 111
139 | CCN(c1ccccc1)c1ccc(C(=O)O)cc1 | 178 to 180
140 | CC(N)c1ccc(NC(N)=O)cc1 (centres undefined) | 132 to 134
141 | CCc1cc(=O)[nH]c(-c2cccnc2)n1 | 151 to 153
142 | CC(Cc1ccccc1)n1cccc1C(=O)O (centres undefined) | 78 to 80
143 | COc1ccc(Cl)c(S(=O)(=O)Cl)c1 | 41 to 43
144 | O=C(CCl)c1ccc(NC(=O)c2ccccc2)cc1 | 140 to 142
